Molecules are shown by their SMILES. Numbers after ± are expanded uncertainties.

For the series the following is noted: Crystal; visual observation.

Take `COC(=O)C1=C(C)NC(C)=C(C(=O)OC)C1c1ccccc1[N+](=O)[O-]`: the Normal melting temperature was 173.50 ± 2.1 °C.

Source of the values: the NIST ThermoML archive (doi:10.1016/j.jct.2016.07.035).
